Laboratory results reported in publication PMC11502347 (Frontiers in Microbiology, 2024).
pIC50: −log10 of the molar value. In brackets after ≈: the same amount, converted by molar mass.

Experiments:
[1] = tested on: Staphylococcus epidermidis ATCC 14990 T; assay: microbe, parasite or virus in culture; assay type: cell-based; details: ATCC14990
MRC-5 fibroblasts = assay: cells; assay type: cell-based; details: Homo sapiens, MRC5; cytotoxicity, resazurin; exposure 24 and 72 h, which one not given
Mtb CF 105 (MDR) = assay type: cell-based, Mycobacterium tuberculosis; details: MDR clinical isolate; REMA, 7 days
[2] = tested on: Enterococcus faecalis ATCC 29212; assay: microbe, parasite or virus in culture; assay type: cell-based; details: ATCC29212
M. smegmatis = assay type: cell-based, Mycobacterium smegmatis; details: Sensitive; REMA, 2 days
[3] = tested on: Klebsiella pneumoniae subsp. pneumoniae ATCC 13883 T; assay: microbe, parasite or virus in culture; assay type: cell-based; details: ATCC13883
[4] = tested on: Enterobacter aerogenes ATCC 13048 T; assay: microbe, parasite or virus in culture; assay type: cell-based; details: Klebsiella aerogenes, ATCC13048
[5] = tested on: Citrobacter freundii ATCC 8030 T; assay: microbe, parasite or virus in culture; assay type: cell-based; details: ATCC8030
[6] = tested on: Staphylococcus saprophyticus subsp. saprophyticus ATCC 15305; assay: microbe, parasite or virus in culture; assay type: cell-based; details: ATCC15305
[7] = tested on: Klebsiella oxytoca CCT 0182; assay: microbe, parasite or virus in culture; assay type: cell-based; details: CCT0182
[8] = tested on: Enterobacter cloacae subsp. cloacae ATCC 13883 T; assay: microbe, parasite or virus in culture; assay type: cell-based; details: ATCC13883
Mtb CF 165 (MDR) = assay type: cell-based, Mycobacterium tuberculosis; details: MDR clinical isolate; REMA, 7 days
[9] = tested on: Gram-negative, Gram-positive bacteria, and fungi, including Candida albicans; assay: microbe, parasite or virus in culture; assay type: cell-based; details: all the bacterial and fungal strains tested (Table 2), read-out: MIC90 for all species analyzed
Mtb H37Rv [10] = assay: In vivo infection and treatment, BALB/c mice; details: daily oral 4 weeks, 5n 200 mg/kg, RFP 15 mg/kg
Mtb CF 81 (Pre-XDR) = assay type: cell-based, Mycobacterium tuberculosis; details: Pre-XDR clinical isolate; REMA, 7 days
[11] = tested on: Murine macrophage J774.A1; assay: cells; assay type: cell-based; details: Mus musculus, cytotoxicity, resazurin, exposure 24 and 72 h, which one not given
[12] = tested on: intracellular Mtb H37Rv in J774.A1 macrophages; assay: Intracellular antimycobacterial activity in infected macrophages; assay type: cell-based, Mycobacterium tuberculosis; details: 10x MIC, 72 h, CFU count
Procedure: Murine macrophage J774.A1 cells (1 × 10^6 cells/mL) were seeded in 24-well plates and incubated as previously described. After 24 h, the supernatant was discarded, and 1 mL of Mtb inoculum (2 × 10^6 CFU/mL) was added to the wells. The plate was incubated for 2 h to facilitate infection. Subsequently, the supernatant was removed, and the cells were washed with PBS. An amikacin solution (200 μg/mL) was added to ensure the sterility of the extracellular environment. After 2 h, the wells were washed, and treatments were applied (1x, 5x, and 10x MIC90 of Bfx or RFP). The cultures were then incubated for 72 h. After incubation, the cells were lysed using a Triton solution, and the supernatant was collected, serially diluted, and plated on Middlebrook 7H11 medium supplemented with 10% OADC. These plates were incubated for 20–30 days until colony-forming units (CFU) were counted ([Solcia et al., 2021]).

Mtb CF 61 (MDR) = assay type: cell-based, Mycobacterium tuberculosis; details: MDR clinical isolate; REMA, 7 days
Mtb H37Rv [13] = assay: microbe, parasite or virus in culture; assay type: cell-based, Mycobacterium tuberculosis; details: Mycobacterium tuberculosis, H37RV; Table 3
Mtb CF 171 (MDR) = assay type: cell-based, Mycobacterium tuberculosis; details: MDR clinical isolate; REMA, 7 days
Mtb CF 48 (MDR) = assay type: cell-based, Mycobacterium tuberculosis; details: MDR clinical isolate; REMA, 7 days
Mtb CF 162 (MDR) = assay type: cell-based, Mycobacterium tuberculosis; details: MDR clinical isolate; REMA, 7 days
[14] = tested on: Candida albicans ATCC 90028; assay: microbe, parasite or virus in culture; assay type: cell-based; details: ATCC90028, Sabouraud broth, 48 h
M. bovis = assay type: cell-based, Mycobacterium bovis; details: Sensitive; REMA, 7 days
[15] = tested on: Proteus mirabilis ATCC 29906 T; assay: microbe, parasite or virus in culture; assay type: cell-based; details: ATCC29906
[16] = tested on: Enterococcus faecium NCTC 7171 T; assay: microbe, parasite or virus in culture; assay type: cell-based; details: NCTC7171
Mtb H37Rv [17] = assay: Checkerboard assay of Bfx with RFP; assay type: cell-based, Mycobacterium tuberculosis
Procedure: To evaluate the interaction between Bfx and RFP, a checkerboard assay was conducted following the methodology proposed by Berenbaum ([Berenbaum, 1978]).Test compounds were serially diluted in Middlebrook 7H9 broth and arranged in a 96-well plate, starting with 2x MIC for each compound. RFP was also diluted horizontally based on its MIC90. The combinations of different concentrations of Bfx and RFP were incubated with Mtb (5 × 10⁵ CFU/mL) at 37°C and 5% CO₂ for 7 days. Post-incubation, 0.01% resazurin was added, and fluorescence readings were taken after 24 h to determine the Fractional Inhibitory Concentration Index (FICI). The combined effects of the compound combinations were classified according to the Fractional Inhibitory Concentration Index (FICI):
FICI=MICofdrug1incombination/MICofdrug1+MICofdrug2incombination/MICofdrug1

With `O=C(Nc1ccc(N2CCN(c3ccccn3)CC2)c(F)c1)c1ccc2no[n+]([O-])c2c1` [Compound 5n] the MIC90 [1] was > 200 µM, the pIC50 (MRC-5 fibroblasts) was < 3.65 and the “CIM90 CF 105” value (Mtb CF 105 (MDR)) was > 57,26 μM. For the same compound, the MIC90 [2] was > 200 µM, the “CIM90 M. smegmatis” value (M. smegmatis) was 41,07 ± 10,05 μM and the MIC90 [3] was > 200 µM. For the same compound, the MIC90 [4] was > 200 µM, the MIC90 [5] was > 200 µM and the MIC90 [6] was > 200 µM. For the same compound, the MIC90 [7] was > 200 µM, the MIC90 [8] was > 200 µM and the “CIM90 CF 165” value (Mtb CF 165 (MDR)) was 1,84 ± 1,73 μM. For the same compound, the MIC90 [9] was > 200 µM, the “reduction of the pulmonary load” value (Mtb H37Rv [10]; abstract) was 3.0 log10 CFU/mL and the “reduction of bacterial load in the lungs” value (Mtb H37Rv [10]; intranasal infection, 5b) was 3.0 log10. The “CIM90 CF 81” value (Mtb CF 81 (Pre-XDR)) was 1,68 ± 1,32 μM, the pIC50 [11] was < 3.64 and the “inhibition of bacterial load within macrophages” value [12] was 0.9 log10. For the same compound, the “CIM90 CF 61” value (Mtb CF 61 (MDR)) was 0,56 ± 0,47 μM, the MIC90 (Mtb H37Rv [13]) was 0.09 µM (≈ 0.0391 µg/mL) and the “CIM90 CF 171” value (Mtb CF 171 (MDR)) was 0,26 ± 0,05 μM. For the same compound, the “CIM90 CF 48” value (Mtb CF 48 (MDR)) was 22.38 ± 9.37 µM, the “CIM90 CF 162” value (Mtb CF 162 (MDR)) was 2,24 ± 1,47 μM and the MIC90 [14] was > 200 µM. The “CIM90 M. bovis” value (M. bovis) was 27,03 ± 10,43 μM, the MIC90 [15] was > 200 µM and the MIC90 [16] was > 200 µM. For the same compound, the “Results (interaction with RFP)” value (Mtb H37Rv [17]; Bfx combined with RFP) was “Synergistic (FICI values less than 0.5 indicate synergy)”, the MIC90 (Mtb H37Rv [17]; Mycobacterium tuberculosis, H37RV, compound alone, Table S1) was 0.09 µM and the MIC90 combined (Mtb H37Rv [17]; in the combination 5n + RFP) was 0,00578 µM.
